The target of assay [1] is T1, Hexokinase-1 (Homo sapiens, UniProt P19367).
T1 sequence (P19367 whole entry): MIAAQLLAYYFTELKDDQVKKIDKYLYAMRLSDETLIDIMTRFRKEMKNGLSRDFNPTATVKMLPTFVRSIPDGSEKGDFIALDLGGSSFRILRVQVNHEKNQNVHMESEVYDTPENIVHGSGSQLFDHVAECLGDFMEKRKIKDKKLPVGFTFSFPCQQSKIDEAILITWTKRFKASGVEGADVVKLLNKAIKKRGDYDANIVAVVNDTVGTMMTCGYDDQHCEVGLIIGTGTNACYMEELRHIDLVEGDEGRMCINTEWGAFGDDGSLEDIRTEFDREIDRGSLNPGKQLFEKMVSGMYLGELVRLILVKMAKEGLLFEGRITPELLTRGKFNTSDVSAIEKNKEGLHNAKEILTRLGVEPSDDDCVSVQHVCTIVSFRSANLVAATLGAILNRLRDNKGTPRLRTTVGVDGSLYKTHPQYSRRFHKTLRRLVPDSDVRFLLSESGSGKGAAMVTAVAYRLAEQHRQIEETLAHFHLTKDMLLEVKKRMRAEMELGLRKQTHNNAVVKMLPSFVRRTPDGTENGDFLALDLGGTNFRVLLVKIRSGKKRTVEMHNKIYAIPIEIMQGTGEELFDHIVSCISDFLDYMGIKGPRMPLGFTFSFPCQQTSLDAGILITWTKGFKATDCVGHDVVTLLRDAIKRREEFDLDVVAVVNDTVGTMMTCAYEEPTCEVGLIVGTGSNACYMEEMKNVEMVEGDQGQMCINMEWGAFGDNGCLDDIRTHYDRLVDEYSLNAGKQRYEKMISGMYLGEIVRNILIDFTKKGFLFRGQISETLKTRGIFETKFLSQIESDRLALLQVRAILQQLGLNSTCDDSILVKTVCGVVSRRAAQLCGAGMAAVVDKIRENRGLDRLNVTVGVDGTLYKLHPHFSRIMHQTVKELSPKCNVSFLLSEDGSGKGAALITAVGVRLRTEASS
Nature of the assay: hexokinase 1 activity inhibitors, potency – biochemical, set 2, resazurin fluorescence coupled readout, selectivity assay for HKDC1 inhibitor project, SAR follow-up (AID 588356). It counts as functional.

Assay [2] addresses T2, Hexokinase HKDC1 (Homo sapiens, UniProt Q2TB90).
T2 sequence (Q2TB90 whole entry): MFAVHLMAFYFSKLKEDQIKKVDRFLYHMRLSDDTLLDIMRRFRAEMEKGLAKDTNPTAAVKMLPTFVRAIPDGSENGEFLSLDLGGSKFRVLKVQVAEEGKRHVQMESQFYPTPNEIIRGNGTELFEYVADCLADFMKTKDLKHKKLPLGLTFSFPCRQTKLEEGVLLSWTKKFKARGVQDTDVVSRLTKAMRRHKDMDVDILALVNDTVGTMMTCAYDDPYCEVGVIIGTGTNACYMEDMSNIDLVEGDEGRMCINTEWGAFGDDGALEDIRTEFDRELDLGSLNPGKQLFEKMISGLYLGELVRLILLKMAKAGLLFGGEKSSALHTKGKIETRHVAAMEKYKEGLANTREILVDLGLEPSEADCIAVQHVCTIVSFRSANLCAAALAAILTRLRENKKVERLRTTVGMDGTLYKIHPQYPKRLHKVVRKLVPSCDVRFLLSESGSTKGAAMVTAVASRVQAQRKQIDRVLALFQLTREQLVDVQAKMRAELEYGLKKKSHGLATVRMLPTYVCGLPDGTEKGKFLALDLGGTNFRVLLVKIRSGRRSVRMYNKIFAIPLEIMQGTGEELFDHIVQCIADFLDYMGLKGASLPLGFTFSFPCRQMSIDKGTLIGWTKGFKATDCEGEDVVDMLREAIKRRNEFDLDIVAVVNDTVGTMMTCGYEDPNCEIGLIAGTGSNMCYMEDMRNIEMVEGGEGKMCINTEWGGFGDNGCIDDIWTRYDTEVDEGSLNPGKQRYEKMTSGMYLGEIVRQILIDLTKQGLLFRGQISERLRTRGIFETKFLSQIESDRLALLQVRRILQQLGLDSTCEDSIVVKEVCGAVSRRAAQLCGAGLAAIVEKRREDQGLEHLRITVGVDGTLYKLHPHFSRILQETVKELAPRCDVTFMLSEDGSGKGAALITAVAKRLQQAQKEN
Nature of the assay: analog inhibition of human HKDC1 activity – biochemical, set 2, SAR follow-up (AID 588355). It counts as functional.

The target in assay [3] is T2, Hexokinase HKDC1. Nature of the assay: SAR analysis of small molecule inhibitors of hexokinase domain containing I (HKDC1). [Related pubchem assays (depositor defined):AID493160, AID493190]. It counts as functional.
A short description of assay [4]: viability of BHK-21 cells – cell-based, secondary screen, cytotoxicity control for flavivirus guanylyltransferase probe project (AID 624078). In kind it is functional.
Assay [5] has as its target T1, Hexokinase-1. Nature of the assay: SAR analysis of small molecule inhibitors of hexokinase domain containing I (HKDC1) in the hexokinase 1 selectivity assay. [Related pubchem assays (depositor defined):AID493160, AID493190]. In kind it is functional.
In assay [6] the target is T3, Caspase-3 (Homo sapiens, UniProt P42574).
T3 sequence (P42574 whole entry): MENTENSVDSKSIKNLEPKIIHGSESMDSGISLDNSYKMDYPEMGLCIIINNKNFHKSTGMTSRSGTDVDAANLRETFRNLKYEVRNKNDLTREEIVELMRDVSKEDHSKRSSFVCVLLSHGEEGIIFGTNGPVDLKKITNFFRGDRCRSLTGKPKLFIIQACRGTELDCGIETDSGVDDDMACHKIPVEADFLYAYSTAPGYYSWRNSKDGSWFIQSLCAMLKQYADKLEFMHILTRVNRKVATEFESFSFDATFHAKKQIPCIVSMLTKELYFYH
Nature of the assay: inhibition of recombinant caspase-3 activity – biochemical, luminescence, set 2, selectivity assay for SENP protease inhibitor project, SAR follow-up (AID 588599). It counts as functional.

For assay [7], the target named is T4, Sentrin-specific protease 6 (Homo sapiens, UniProt Q9GZR1).
T4 sequence (Q9GZR1 whole entry): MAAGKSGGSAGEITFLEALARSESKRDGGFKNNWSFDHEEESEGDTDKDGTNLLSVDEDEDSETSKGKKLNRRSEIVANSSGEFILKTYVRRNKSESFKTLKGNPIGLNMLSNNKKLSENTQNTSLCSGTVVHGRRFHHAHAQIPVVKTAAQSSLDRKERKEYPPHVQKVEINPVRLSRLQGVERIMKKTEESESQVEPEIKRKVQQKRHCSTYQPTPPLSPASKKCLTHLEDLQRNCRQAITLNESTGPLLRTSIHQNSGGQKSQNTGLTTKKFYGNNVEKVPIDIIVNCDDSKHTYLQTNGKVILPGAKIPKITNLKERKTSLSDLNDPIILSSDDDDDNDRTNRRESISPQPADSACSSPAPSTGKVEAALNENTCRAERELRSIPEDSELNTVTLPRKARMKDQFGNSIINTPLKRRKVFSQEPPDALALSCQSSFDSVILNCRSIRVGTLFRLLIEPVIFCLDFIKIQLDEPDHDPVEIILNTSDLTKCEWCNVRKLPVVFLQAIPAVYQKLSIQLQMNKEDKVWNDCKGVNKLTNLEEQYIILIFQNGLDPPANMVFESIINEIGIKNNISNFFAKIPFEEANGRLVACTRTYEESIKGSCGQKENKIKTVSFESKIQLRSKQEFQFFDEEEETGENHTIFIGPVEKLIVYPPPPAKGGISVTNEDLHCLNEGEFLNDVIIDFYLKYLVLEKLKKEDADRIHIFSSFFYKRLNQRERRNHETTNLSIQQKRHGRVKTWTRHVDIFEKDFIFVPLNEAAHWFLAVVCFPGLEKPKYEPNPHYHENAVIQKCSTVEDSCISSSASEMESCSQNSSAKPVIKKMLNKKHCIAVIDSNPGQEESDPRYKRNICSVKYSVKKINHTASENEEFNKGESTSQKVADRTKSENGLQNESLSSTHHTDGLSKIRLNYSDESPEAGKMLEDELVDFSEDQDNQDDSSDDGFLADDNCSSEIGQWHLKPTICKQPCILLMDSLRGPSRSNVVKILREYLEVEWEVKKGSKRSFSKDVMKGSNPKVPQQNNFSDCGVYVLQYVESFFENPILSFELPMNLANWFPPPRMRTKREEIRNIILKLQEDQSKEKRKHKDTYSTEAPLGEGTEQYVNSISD
The assay is described as follows: inhibition of human SENP6 catalytic domain – biochemical, luminescence, set 2, SAR follow-up (AID 588598). In kind it is functional.

Assay [8] deals with T5, Sentrin-specific protease 8 (Homo sapiens, UniProt Q96LD8).
T5 sequence (Q96LD8 whole entry): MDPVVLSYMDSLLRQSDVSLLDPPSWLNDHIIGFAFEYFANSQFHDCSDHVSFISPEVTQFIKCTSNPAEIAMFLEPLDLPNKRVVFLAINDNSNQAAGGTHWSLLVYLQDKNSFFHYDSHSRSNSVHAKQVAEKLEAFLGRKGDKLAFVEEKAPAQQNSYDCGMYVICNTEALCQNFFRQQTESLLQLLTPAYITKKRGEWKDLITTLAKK
Nature of the assay: inhibition of sentrin protease 8 – biochemical, luminescence, set 2, SAR follow-up (AID 588601). It counts as functional.

For assay [9], the target named is T6, Sentrin-specific protease 7 (Homo sapiens, UniProt Q9BQF6).
T6 sequence (Q9BQF6 whole entry): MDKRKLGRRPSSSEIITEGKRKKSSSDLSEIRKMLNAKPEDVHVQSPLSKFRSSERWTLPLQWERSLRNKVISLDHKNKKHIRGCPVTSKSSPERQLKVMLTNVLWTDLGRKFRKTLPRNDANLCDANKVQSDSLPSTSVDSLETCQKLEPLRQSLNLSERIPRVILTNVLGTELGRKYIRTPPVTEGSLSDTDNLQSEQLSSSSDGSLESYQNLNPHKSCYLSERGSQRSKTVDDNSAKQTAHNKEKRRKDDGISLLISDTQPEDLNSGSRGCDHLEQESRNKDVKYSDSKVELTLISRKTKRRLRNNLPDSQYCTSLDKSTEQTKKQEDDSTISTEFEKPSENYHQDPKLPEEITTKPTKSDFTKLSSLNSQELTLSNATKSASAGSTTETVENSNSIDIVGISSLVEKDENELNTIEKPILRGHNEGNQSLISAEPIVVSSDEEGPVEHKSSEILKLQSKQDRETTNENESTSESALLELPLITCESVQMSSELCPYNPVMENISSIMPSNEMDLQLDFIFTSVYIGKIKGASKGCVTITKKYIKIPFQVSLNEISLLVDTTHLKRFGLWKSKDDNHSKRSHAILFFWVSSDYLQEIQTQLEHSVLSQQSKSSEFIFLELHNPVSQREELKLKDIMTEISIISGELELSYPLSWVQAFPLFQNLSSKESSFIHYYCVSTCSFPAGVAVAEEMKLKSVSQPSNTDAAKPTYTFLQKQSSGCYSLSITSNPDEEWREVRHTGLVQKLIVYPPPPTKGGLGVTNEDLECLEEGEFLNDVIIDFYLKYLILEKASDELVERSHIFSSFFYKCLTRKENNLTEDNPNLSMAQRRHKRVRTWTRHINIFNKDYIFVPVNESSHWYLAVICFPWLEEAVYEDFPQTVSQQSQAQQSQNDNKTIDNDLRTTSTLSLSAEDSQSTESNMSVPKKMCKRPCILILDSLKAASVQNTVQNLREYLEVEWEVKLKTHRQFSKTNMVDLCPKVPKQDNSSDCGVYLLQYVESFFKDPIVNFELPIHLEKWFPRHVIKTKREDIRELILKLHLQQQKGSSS
Nature of the assay: inhibition of human SENP7 cleavage activity – biochemical, luminescence, set 2, SAR follow-up (AID 588600). In kind it is functional.

Assay [10] deals with NIH3T3. Nature of the assay: mammalian cell viability counter-check – Alamar Blue, fluconazole, dry powder, cytotoxicity control for antifungal drug resistance project, dose response (AID 488809). In kind it is functional, cell-based. The conditions noted are these: Mus musculus. On the technique in general: Alamar Blue is a resazurin reagent that responds to reducing activity.

Active and inactive are the calls of the source.

For `CCCCN1C(=O)C(NC(C)=O)c2cc(Cl)ccc21` (stereo not given), the IC50 in assay [1] and in assay [2] was > 80 µM (inactive) in each case.

As for `O=C(O)CSc1cc(NS(=O)(=O)c2ccc(F)cc2)c2ccccc2c1O`, the results for the IC50 in assay [3] and in [5] were 5.02 µM (active) and 40.3 µM (inactive), respectively. The half-maximal cytotoxic concentration (CC50) in [4] is 6.86 µM (active).

For the molecule `CCCS(=O)(=O)c1c(S(=O)(=O)CCC)c2c(C)cccn2c1C(=O)N/N=C\c1c[nH]c2ccccc12`, the IC50 in assay [6], in [7], in assay [8] and in assay [9] was > 99 µM (inactive) each time.

`O=S(=O)(c1ccc(Cl)cc1)N1CCN(c2ccnc3cc(Cl)ccc23)CC1`: the AC50 in [10] was 27.7 µM (active).

For orientation: IC50 means the concentration at which inhibition is half-maximal. Broadly, the CC50 is the concentration giving 50% cytotoxicity. In general, AC50 refers to the concentration at which the activity in the assay is half-maximal.

For the origin of these results see ChEMBL document CHEMBL1201862, “PubChem BioAssay data set” (2004).
